Measured values taken from patent US6451293B1, “Combination of erythrulose and a reducing sugar with self-tanning properties” (Pentapharm AG, priority 1997, dated 2002).

What was measured:
skin [1] = settings: known active substance, background statement; cited from earlier work
skin [2] = assay: time for the skin tan/colour to develop; settings: in vivo
Method: The hitherto most frequently used active substance is dihydroxyacetone (hereinafter referred to as “DHA”). The fast tanning active substance (4-7 hours) does, however, have some disadvantages. The skin colour achieved is yellowish-brown, which produces an unnatural colour, particularly in pale skin. In addition, the tan is irregular and soon pales again because the top-most layers of the epidermis are quickly shed. […] This may be attributed to the fact that erythrulose dyes the skin more slowly (the colour takes about 20-24 hours to develop) and less intensively, but instead also penetrates lower layers of the Stratum corneum where it is also able to react with the free amino groups. This not only results in more even tanning, but also in a retarded effect, with the result that the tan lasts longer. Moreover the skin becomes less dried out than, for example, with DHA alone. The synergistic effect, that will subsequently also be shown with reference to examples, of the active substance combination erythrulose/other reducing sugars, such as for example DHA, was not predictable.

Row | SMILES | time of tanning (skin [1]) | time the colour takes to develop (skin [2])
1 | O=C(CO)CO [DHA, 1,3-dihydroxy-propan-2-one] | 4 to 7 h | –
2 | O=C(CO)C(O)CO (racemic) [erythrulose, 1,3,4-trihydroxy-butan-2-one] | – | 20 to 24 h
